The values that follow are results of earlier work, collected in US10918604B2, “Solid oral dosage forms of eslicarbazepine” (Jubilant Generics Limited, priority 2015, dated 2021).

For this data set the following is noted: reported in background.

As for `CC(=O)O[C@H]1Cc2ccccc2N(C(N)=O)c2ccccc21` [Eslicarbazepine acetate, (S)-10-acetoxy-10,11-dihydro-5H-dibenzo[b,f]azepine-5-carboxamide], the solubility in water entry is listed as “poorly soluble in water”.
